Results: US20260055102A1 (Redx Pharma Limited, priority 2022, published 2026)

What was measured:
[1] = target: Recombinant human DDR1 (aa440-876 containing a GST tag) (Homo sapiens (Human), UniProt Q08345); test: LanthaScreen Eu Kinase Binding Assay DDR1; settings: Kinase Tracer 178 5 nM, at least two independent replicates; for IC50: read-out: DDR1 pIC50 (converted)
Procedure: (§1) DDR1 and DDR2 Biochemical Assay Method The capacity of compounds to bind to DDR1 and DDR2 was quantified using a LanthaScreen Eu Kinase Binding Assay. Recombinant human DDR1 (2.5 nM; aa440-876 containing a GST tag) and DDR2 (1.75 nM; aa427-855 containing a GST tag) were diluted in assay buffer (50 mM HEPES pH7.3, 10 mM MgCl2, 1 mM EGTA and 0.01% Tween) with various concentrations of compound in a 384-well plate and a volume of 5 uL. After a 30-minute incubation at room temperature, 2.5 uL of Eu-anti GST antibody (diluted to 1 nM in assay buffer) plus Kinase Tracer 178 (diluted in assay buffer to 5 nM for DDR1 and 10 nM for DDR2) were added to the plate. Following 60-minute incubation at room temperature, time-resolved fluorescence was measured on a BMG Labtech PHERAstar plate reader. DMSO (1%) and reference compound (1 μM) were used to generate the Max and Min assay signals, respectively. Data was analysed using a four-parameter logistic model to calculate IC50 values, with at least two independent replicates were performed for each compound.

[2] = target: Recombinant human DDR2 (aa427-855 containing a GST tag) (Homo sapiens (Human), UniProt Q16832); test: LanthaScreen Eu Kinase Binding Assay DDR2; settings: Kinase Tracer 178 10 nM, at least two independent replicates; for IC50: read-out: DDR2 pIC50 (converted)
Procedure: as §1

Sequence of Recombinant human DDR1 (aa440-876 containing a GST tag) (Q08345 other isoform, or with tags, fused parts or gaps): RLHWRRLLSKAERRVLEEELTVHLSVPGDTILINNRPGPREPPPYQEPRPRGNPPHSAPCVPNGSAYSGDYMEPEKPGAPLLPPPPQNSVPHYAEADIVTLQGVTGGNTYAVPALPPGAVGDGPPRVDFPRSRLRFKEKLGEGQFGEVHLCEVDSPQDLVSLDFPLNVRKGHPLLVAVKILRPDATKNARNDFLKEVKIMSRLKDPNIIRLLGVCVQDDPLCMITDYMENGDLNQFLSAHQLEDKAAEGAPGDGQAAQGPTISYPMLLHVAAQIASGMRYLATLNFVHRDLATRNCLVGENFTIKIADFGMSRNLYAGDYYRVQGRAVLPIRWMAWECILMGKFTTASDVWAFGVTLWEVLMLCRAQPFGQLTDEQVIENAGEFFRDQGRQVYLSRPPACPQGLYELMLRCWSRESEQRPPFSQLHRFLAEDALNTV
Sequence of Recombinant human DDR2 (aa427-855 containing a GST tag) (Q16832 427-855): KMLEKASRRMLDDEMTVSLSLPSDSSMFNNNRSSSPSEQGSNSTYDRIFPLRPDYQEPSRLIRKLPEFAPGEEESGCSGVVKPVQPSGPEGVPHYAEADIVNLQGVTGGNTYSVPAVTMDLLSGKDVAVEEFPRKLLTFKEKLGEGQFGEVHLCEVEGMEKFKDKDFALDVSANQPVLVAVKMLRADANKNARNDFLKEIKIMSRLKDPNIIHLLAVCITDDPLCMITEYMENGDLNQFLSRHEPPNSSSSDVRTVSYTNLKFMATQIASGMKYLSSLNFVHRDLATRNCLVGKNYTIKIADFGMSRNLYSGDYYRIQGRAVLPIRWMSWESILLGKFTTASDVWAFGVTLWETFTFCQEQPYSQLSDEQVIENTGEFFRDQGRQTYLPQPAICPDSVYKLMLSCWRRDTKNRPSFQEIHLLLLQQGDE

SMILES	DDR1 pIC50 [1]	IC50 [2]	IC50 [1]	DDR2 pIC50 [2]
Cc1cccc2c1n(-c1ccc(-c3cncc4c3cnn4C)cc1)c(=O)n2CC(=O)N1CCC[C@H]1C(F)F [Example 43, 1-[2-[(2S)-2-(difluoromethyl)pyrrolidin-1-yl]-2-oxo-ethyl]-4-methyl-3-[4-(1-methylpyrazolo[3,4-c]pyridin-4-yl)phenyl]benzimidazol-2-one]	A (pIC50>8)	10 to 100 nM		
Cc1cccc2c1n(-c1ccc(-c3cncc4c3cnn4C)cc1)c(=O)n2CC(=O)N1CCC[C@H]1CF [Example 45, 1-[2-[(2S)-2-(fluoromethyl)pyrrolidin-1-yl]-2-oxo-ethyl]-4-methyl-3-[4-(1-methylpyrazolo[3,4-c]pyridin-4-yl)phenyl]benzimidazol-2-one]	A (pIC50>8)	10 to 100 nM		
Cc1cccc2c1n(-c1cnc(-c3cncc4c3cnn4C)cn1)c(=O)n2CC(=O)NCC(F)(F)F [Example 47, 2-[4-methyl-3-[5-(1-methylpyrazolo[3,4-c]pyridin-4-yl)pyrazin-2-yl]-2-oxo-benzimidazol-1-yl]-N-(2,2,2-trifluoroethyl)acetamide]	A (pIC50>8)	100 to 1000 nM		
Cc1cccc2c1n(-c1cnc(-c3cncc4c3cnn4C)cn1)c(=O)n2CC(=O)N[C@H](C)C(F)(F)F [Example 48, 2-[4-methyl-3-[5-(1-methylpyrazolo[3,4-c]pyridin-4-yl)pyrazin-2-yl]-2-oxo-benzimidazol-1-yl]-N-[(1R)-2,2,2-trifluoro-1-methyl-ethyl]acetamide]			10 to 100 nM	D (pIC50≤6)
Cc1cccc2c1n(-c1cnc(-c3cncc4c3cnn4C)cn1)c(=O)n2CC(=O)N[C@@H](C)C(F)(F)F [Example 49, 2-[4-methyl-3-[5-(1-methylpyrazolo[3,4-c]pyridin-4-yl)pyrazin-2-yl]-2-oxo-benzimidazol-1-yl]-N-[(1S)-2,2,2-trifluoro-1-methyl-ethyl]acetamide]	A (pIC50>8)	10 to 100 nM		

Now from value to molecule:

DDR1 pIC50 [1]	IC50 [2]	IC50 [1]	DDR2 pIC50 [2]	SMILES
	10 to 100 nM	< 10 nM		Cc1cccc2c1n(-c1ccc(-c3cncc4[nH]ncc34)cc1)c(=O)n2CC(=O)NCC(F)(F)F [Example 44, 2-[4-methyl-2-oxo-3-[4-(1H-pyrazolo[3,4-c]pyridin-4-yl)phenyl]benzimidazol-1-yl]-N-(2,2,2-trifluoroethyl)acetamide]
		10 to 100 nM	D (pIC50≤6)	Cn1ncc2c(-c3ccc(-n4c(=O)n(CC(=O)NCCC(F)(F)F)c5ccccc54)cc3)cncc21 [Example 46, 2-[3-[4-(1-methylpyrazolo[3,4-c]pyridin-4-yl)phenyl]-2-oxo-benzimidazol-1-yl]-N-(3,3,3-trifluoropropyl)acetamide]
A (pIC50>8)	10 to 100 nM			Cc1cccc2c1n(-c1ccc(-c3cncc4c3cnn4C)nc1)c(=O)n2CC(=O)NCC(F)(F)F [Example 50, 2-[4-methyl-3-[6-(1-methylpyrazolo[3,4-c]pyridin-4-yl)-3-pyridyl]-2-oxo-benzimidazol-1-yl]-N-(2,2,2-trifluoroethyl)acetamide]
	100 to 1000 nM	10 to 100 nM		Cc1cccc2c1n(-c1ccc(-c3cncc4c3cnn4C)nc1)c(=O)n2CC(=O)N[C@H](C)C(F)(F)F [Example 51, 2-[4-methyl-3-[6-(1-methylpyrazolo[3,4-c]pyridin-4-yl)-3-pyridyl]-2-oxo-benzimidazol-1-yl]-N-[(1R)-2,2,2-trifluoro-1-methyl-ethyl]acetamide]
A (pIC50>8)	10 to 100 nM			Cc1cccc2c1n(-c1ccc(-c3cncc4c3cnn4C)nc1)c(=O)n2CC(=O)N[C@@H](C)C(F)(F)F [Example 52, 2-[4-methyl-3-[6-(1-methylpyrazolo[3,4-c]pyridin-4-yl)-3-pyridyl]-2-oxo-benzimidazol-1-yl]-N-[(1S)-2,2,2-trifluoro-1-methyl-ethyl]acetamide]
